Read-outs that look alike come from different tables or passages of the source.
Columns and labels:
isolated rabbit hearts [1] = assay: cardiokinetic effect on isolated heart (Langendorff): contractile force after anoxia, positive inotropic effect; details: 10 minutes from interruption of anoxic period
Method: (§1) The cardiokinetic effect on isolated heart was also investigated as follows. Rabbit hearts isolated by the Langendorff method were perfused with oxygenized ringer solution at 38.2° C. The isometric contractions, electrocardiogram and coronary flow were recorded using a "Battaglia-Rangoni" polygraph. By removing the oxygen from the perfusion fluid, metabolic damage was induced in the cardia muscle, up to an 80% reduction in the cardiac contractile force.
(§2) Under these conditions of prolonged anoxia the aerobic glycolysis of the myocardium is slowed down, accompanied by the storage of acid catabolites due to both the accumulation of pyruvic acid and its conversion to lactic acid which cannot be utilized because of the depression of pyridine enzymes, such as LDH (lactodehydrogenase). This has repercussions on the anaerobic glycolysis affecting an ever increasing number of enzymes, accompanied by a progressive and increasingly critical exhaustion of the myocardium. Thus a whole series of cardiac muscle fatigue levels occurs which can be observed by the behavior of the examined parameters, namely the contractile force, coronary flow, heart rate and cardiac rhythm. As soon as the contractile force was reduced by 80%, the perfusion fluid was once again oxygenized either without adding other compounds (controls) or with the addition of the compounds under examination.
Table 3 below gives the percentage values of the contractile force of the heart, showing a positive inotropic effect, calculated after 10 minutes from the interruption of the anoxic period (myocardial restoration).

isolated rabbit hearts [2] = assay: coronary vasodilator effect: coronary flow, isolated heart (Langendorff)
Method: as §1, §2

isolated rat atrium = assay: antiarrhythmic effect, isolated rat atrium method of M. Libonati and G. Segre; details: Rattus norvegicus; for inhibition at 0.1 µg/mL / activation at 0.1 µg/mL: 1·10^-4 g/lt; for inhibition at 0.1 µg/mL / inhibition at 0.01 µg/mL / inhibition at 0.001 µg/mL: decrease; for activation at 0.1 µg/mL / activation at 0.01 µg/mL / activation at 0.001 µg/mL: increase; for inhibition at 0.01 µg/mL / activation at 0.01 µg/mL: 1·10^-5 g/lt; for inhibition at 0.001 µg/mL / activation at 0.001 µg/mL: 1·10^-6 g/lt
female rats = assay: antifatigue effect: rota-rod; type: in vivo, rat; details: Rattus norvegicus, ip, 0.25 h, read-out: percentage of animals staying on the rota-rod more than 180 seconds; for responders at 300 mg/kg: 300 mg/kg i.p.; for responders at 400 mg/kg: 400 mg/kg i.p.; for responders at 600 mg/kg: 600 mg/kg i.p.
Method: The antifatigue effect was also examined with the following results. The antifatigue effect was investigated by administering the compounds of the formula (I) according to the present application to female rats intraperitoneally in saline solution and saline solution alone to the controls by the same route. Every 15 minutes (sessions) after treatment, the animals were placed on a 6 cm diameter rod, rotating at 16 r.p.m. The percentage of the animals capable of staying on the rota-rod for a duration of more than 180 seconds was then recorded.

[3] = read-out: Mean percent variation versus controls: excitability (-%)
[4] = read-out: Mean percent variation versus controls: frequency max (-%)
[5] = read-out: Mean percent variation versus controls: refractory period (+%)
[6] = read-out: Mean percent variation versus controls: rheobase (+%)
[7] = session 6 (every 15 minutes), * p < 0.05

| Structure (SMILES) | Contractile force, Mean ± S.E. (isolated rabbit hearts [1]; 1·10^-5 g/lt) [%] | Contractile force, Mean ± S.E. (isolated rabbit hearts [1]; 1·10^-6 g/lt) [%] | Contractile force, Mean ± S.E. (isolated rabbit hearts [1]; 5·10^-6 g/lt) [%] | Coronary flow, Mean ± S.E. (isolated rabbit hearts [2]; 1·10^-5 g/lt) [%] | Coronary flow, Mean ± S.E. (isolated rabbit hearts [2]; 1·10^-6 g/lt) [%] | Coronary flow, Mean ± S.E. (isolated rabbit hearts [2]; 5·10^-6 g/lt) [%] | inhibition at 0.1 µg/mL (isolated rat atrium; [3]) [%] | inhibition at 0.1 µg/mL (isolated rat atrium; [4]) [%] | activation at 0.1 µg/mL (isolated rat atrium; [5]) [%] | activation at 0.1 µg/mL (isolated rat atrium; [6]) [%] | inhibition at 0.01 µg/mL (isolated rat atrium; [3]) [%] | inhibition at 0.01 µg/mL (isolated rat atrium; [4]) [%] | activation at 0.01 µg/mL (isolated rat atrium; [5]) [%] | activation at 0.01 µg/mL (isolated rat atrium; [6]) [%] | inhibition at 0.001 µg/mL (isolated rat atrium; [3]) [%] | inhibition at 0.001 µg/mL (isolated rat atrium; [4]) [%] | activation at 0.001 µg/mL (isolated rat atrium; [5]) [%] | activation at 0.001 µg/mL (isolated rat atrium; [6]) [%] | responders at 300 mg/kg (female rats; session 1 (every 15 minutes)) [%] | responders at 300 mg/kg (female rats; session 2 (every 15 minutes)) [%] | other results |
| --- | --- | --- | --- | --- | --- | --- | --- | --- | --- | --- | --- | --- | --- | --- | --- | --- | --- | --- | --- | --- | --- |
| CCCCCCCCCC(=O)OC(CC(=O)[O-])C[N+](C)(C)C (racemic) [decanoyl-d,l-carnitine] | 36.3 ± 6.53 | 26.9 ± 5.02 | 29.1 ± 3.12 | 83.21 ± 5.70 | 76.30 ± 9.42 | 72.60 ± 12.4 | 25.2 | 24.8 | 21.6 | 21.2 | 17.2 | 12 | 10.3 | 9.54 | 0 | 8.66 | 9.14 | 3.12 | 0 | 0 | responders at 300 mg/kg (female rats; session 3 (every 15 minutes)): 0%; responders at 300 mg/kg (female rats; session 4 (every 15 minutes)): 10%; responders at 300 mg/kg (female rats; session 5 (every 15 minutes)): 10%; responders at 300 mg/kg (female rats; session 6 (every 15 minutes)): 10%; responders at 400 mg/kg (female rats; session 1 (every 15 minutes)): 0%; responders at 400 mg/kg (female rats; session 2 (every 15 minutes)): 0%; responders at 400 mg/kg (female rats; session 3 (every 15 minutes)): 0%; responders at 400 mg/kg (female rats; session 4 (every 15 minutes)): 10%; responders at 400 mg/kg (female rats; session 5 (every 15 minutes)): 10%; responders at 400 mg/kg (female rats; [7]): 10%; responders at 600 mg/kg (female rats; session 1 (every 15 minutes)): 0%; responders at 600 mg/kg (female rats; session 2 (every 15 minutes)): 0%; responders at 600 mg/kg (female rats; session 3 (every 15 minutes)): 0%; responders at 600 mg/kg (female rats; session 4 (every 15 minutes)): 10%; responders at 600 mg/kg (female rats; session 5 (every 15 minutes)): 10%; responders at 600 mg/kg (female rats; [7]): 20% |
| CCCCCC(=O)OC(CC(=O)[O-])C[N+](C)(C)C (racemic) [hexanoyl-d,l-carnitine] | 38.0 ± 4.80 | 24.2 ± 3.88 | 28.8 ± 3.16 | 84.08 ± 5.14 | 76.25 ± 4.75 | 75.28 ± 8.36 | 26.3 | 25.1 | 21.7 | 21.7 | 18.2 | 12.3 | 12.7 | 10.1 | 12.4 | 8.71 | 9.04 | 6.2 | 0 | 0 | responders at 300 mg/kg (female rats; session 3 (every 15 minutes)): 0%; responders at 300 mg/kg (female rats; session 4 (every 15 minutes)): 0%; responders at 300 mg/kg (female rats; session 5 (every 15 minutes)): 10%; responders at 300 mg/kg (female rats; session 6 (every 15 minutes)): 10%; responders at 400 mg/kg (female rats; session 1 (every 15 minutes)): 0%; responders at 400 mg/kg (female rats; session 2 (every 15 minutes)): 0%; responders at 400 mg/kg (female rats; session 3 (every 15 minutes)): 0%; responders at 400 mg/kg (female rats; session 4 (every 15 minutes)): 0%; responders at 400 mg/kg (female rats; session 5 (every 15 minutes)): 10%; responders at 400 mg/kg (female rats; [7]): 10%; responders at 600 mg/kg (female rats; session 1 (every 15 minutes)): 0%; responders at 600 mg/kg (female rats; session 2 (every 15 minutes)): 0%; responders at 600 mg/kg (female rats; session 3 (every 15 minutes)): 10%; responders at 600 mg/kg (female rats; session 4 (every 15 minutes)): 10%; responders at 600 mg/kg (female rats; session 5 (every 15 minutes)): 20%; responders at 600 mg/kg (female rats; [7]): 30% |
| CCCCCCCC(=O)OC(CC(=O)[O-])C[N+](C)(C)C (racemic) [octanoyl-d,l-carnitine] | 37.8 ± 4.62 | 25.2 ± 3.60 | 29.8 ± 4.13 | 84.71 ± 6.20 | 76.24 ± 6.13 | 76.00 ± 9.16 | 47.8 | 17.2 | 39.8 | 4.16 | 28.6 | 36.2 | 16.5 | 0 | 12.7 | 10.9 | 5.73 | 9.46 | 0 | 0 | responders at 300 mg/kg (female rats; session 3 (every 15 minutes)): 0%; responders at 300 mg/kg (female rats; session 4 (every 15 minutes)): 0%; responders at 300 mg/kg (female rats; session 5 (every 15 minutes)): 10%; responders at 300 mg/kg (female rats; session 6 (every 15 minutes)): 10%; responders at 400 mg/kg (female rats; session 1 (every 15 minutes)): 0%; responders at 400 mg/kg (female rats; session 2 (every 15 minutes)): 0%; responders at 400 mg/kg (female rats; session 3 (every 15 minutes)): 0%; responders at 400 mg/kg (female rats; session 4 (every 15 minutes)): 0%; responders at 400 mg/kg (female rats; session 5 (every 15 minutes)): 10%; responders at 400 mg/kg (female rats; [7]): 10%; responders at 600 mg/kg (female rats; session 1 (every 15 minutes)): 0%; responders at 600 mg/kg (female rats; session 2 (every 15 minutes)): 0%; responders at 600 mg/kg (female rats; session 3 (every 15 minutes)): 10%; responders at 600 mg/kg (female rats; session 4 (every 15 minutes)): 10%; responders at 600 mg/kg (female rats; session 5 (every 15 minutes)): 10%; responders at 600 mg/kg (female rats; [7]): 30% |
